The NIST ThermoML archive (doi:10.1016/j.jct.2013.08.010)

What was measured:
[1] = mn = molality of the nth substance listed, in mol/kg; settings: 101 kPa, Liquid; for speed of sound: Sing-around technique in a fixed-path interferometer; for mass density: Vibrating tube method
[2] = 101 kPa, Liquid, Sing-around technique in a fixed-path interferometer

O=C([O-])CC(O)(CC(=O)[O-])C(=O)[O-].[Na+].[Na+].[Na+] [trisodium citrate] + O
[1]
Settings	mass density, 288.15 K [kg/m3]	mass density, 298.15 K [kg/m3]	mass density, 308.15 K [kg/m3]	mass density, 318.15 K [kg/m3]	speed of sound, 288.15 K [m/s]	speed of sound, 298.15 K [m/s]	speed of sound, 308.15 K [m/s]	speed of sound, 318.15 K [m/s]
m1 = 0.2	1034.67	1031.98	1028.5	1024.36	1508	1536	1556.9	1571.8
m1 = 0.4	1071.21	1067.93	1064.13	1059.23	1552.2	1577.5	1595.8	1608.3
m1 = 0.6	1104.43	1100.68	1096.96	1092.26	1591.5	1614	1630.3	1641.2
m1 = 0.8	1137.97	1133.93	1129.43	1124.5	1634	1653.8	1667.3	1676.2

O [water]
[2]
Settings	speed of sound [m/s]
288.15 K	1463.1
298.15 K	1495.8
308.15 K	1519.1
